# Experimental data published in PubChem BioAssay (NCI).
#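 Step 1: Grow cells in 96-well plates. Step 2: Expose to compound for 48 hours at 5 concentrations. Step 3: Interpolate endpoints linearly; if unreached, use highest concentration. Here, GI50 denotes the concentration required for 50% inhibition of growth. TGI: total growth inhibition.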
# Legend:
# Experiment in all cases: NCI-60 cell line screen, 48 h
# COLO 205 colon = test system: COLO 205 colon
# SF-539 CNS = test system: SF-539 CNS
# DU-145 prostate = test system: DU-145 prostate
# UACC-257 melanoma = test system: UACC-257 melanoma
# SF-295 CNS = test system: SF-295 CNS
# A549 NSCLC = test system: A549 NSCLC
# OVCAR-5 ovarian = test system: OVCAR-5 ovarian
# NCI/ADR-RES ovarian = test system: NCI/ADR-RES ovarian
# HT29 colon = test system: HT29 colon
# CAKI-1 renal = test system: CAKI-1 renal
# KM12 colon = test system: KM12 colon
# SF-268 CNS = test system: SF-268 CNS
# UACC-62 melanoma = test system: UACC-62 melanoma
# MDA-MB-435 = test system: MDA-MB-435
# OVCAR-3 ovarian = test system: OVCAR-3 ovarian
# IGROV1 ovarian = test system: IGROV1 ovarian
# MOLT-4 leukemia = test system: MOLT-4 leukemia
# LOX IMVI melanoma = test system: LOX IMVI melanoma
# NCI-H226 lung = test system: NCI-H226 lung
# HCC-2998 colon = test system: HCC-2998 colon
# OVCAR-4 ovarian = test system: OVCAR-4 ovarian
# U251 CNS = test system: U251 CNS
# SK-MEL-2 melanoma = test system: SK-MEL-2 melanoma
# CCRF-CEM leukemia = test system: CCRF-CEM leukemia
# HS 578T breast = test system: HS 578T breast
# K-562 leukemia = test system: K-562 leukemia
# SR leukemia = test system: SR leukemia
# HCT-116 colon = test system: HCT-116 colon
# RXF 393 renal = test system: RXF 393 renal
# A498 renal = test system: A498 renal
# OVCAR-8 ovarian = test system: OVCAR-8 ovarian
# HL-60(TB) leukemia = test system: HL-60(TB) leukemia
# NCI-H460 lung = test system: NCI-H460 lung
# SK-MEL-5 melanoma = test system: SK-MEL-5 melanoma
# 786-0 renal = test system: 786-0 renal
# HCT-15 colon = test system: HCT-15 colon
# HOP-62 NSCLC = test system: HOP-62 NSCLC
# M14 melanoma = test system: M14 melanoma
# SNB-19 CNS = test system: SNB-19 CNS
# RPMI-8226 leukemia = test system: RPMI-8226 leukemia
# UO-31 renal = test system: UO-31 renal
# SK-MEL-28 melanoma = test system: SK-MEL-28 melanoma
# MCF7 breast = test system: MCF7 breast
# BT-549 breast = test system: BT-549 breast
# PC-3 prostate = test system: PC-3 prostate
# SK-OV-3 ovarian = test system: SK-OV-3 ovarian
# NCI-H522 lung = test system: NCI-H522 lung
# ACHN renal = test system: ACHN renal
# SN12C renal = test system: SN12C renal
# SW-620 colon = test system: SW-620 colon
# MDA-MB-231 breast = test system: MDA-MB-231 breast
# SNB-75 CNS = test system: SNB-75 CNS
smiles,measurement,setting,value
Cc1ccc2c(N/N=C\c3ccco3)cc(C)nc2n1,GI50,COLO 205 colon,1.88 µM
same,TGI,COLO 205 colon,3.75 µM
same,GI50,SF-539 CNS,2.01 µM
same,TGI,SF-539 CNS,3.74 µM
same,GI50,DU-145 prostate,6.79 µM
same,TGI,DU-145 prostate,20.1 µM
same,GI50,UACC-257 melanoma,2.79 µM
same,TGI,UACC-257 melanoma,8.72 µM
same,GI50,SF-295 CNS,3.31 µM
same,TGI,SF-295 CNS,14.3 µM
same,GI50,A549 NSCLC,4.37 µM
same,TGI,A549 NSCLC,18.5 µM
same,GI50,OVCAR-5 ovarian,11.8 µM
same,TGI,OVCAR-5 ovarian,26.3 µM
same,GI50,NCI/ADR-RES ovarian,6.25 µM
same,TGI,NCI/ADR-RES ovarian,26.1 µM
same,GI50,HT29 colon,2.7 µM
same,TGI,HT29 colon,8.95 µM
same,GI50,CAKI-1 renal,2.93 µM
same,TGI,CAKI-1 renal,12.8 µM
same,GI50,KM12 colon,4.98 µM
same,TGI,KM12 colon,17.9 µM
same,GI50,SF-268 CNS,6.15 µM
same,TGI,SF-268 CNS,20.5 µM
same,GI50,UACC-62 melanoma,1.81 µM
same,TGI,UACC-62 melanoma,3.69 µM
same,GI50,MDA-MB-435,2.63 µM
same,TGI,MDA-MB-435,10.7 µM
same,GI50,OVCAR-3 ovarian,2.81 µM
same,TGI,OVCAR-3 ovarian,7.49 µM
same,GI50,IGROV1 ovarian,3.41 µM
same,TGI,IGROV1 ovarian,14.8 µM
same,GI50,MOLT-4 leukemia,2.67 µM
same,TGI,MOLT-4 leukemia,8.83 µM
same,GI50,LOX IMVI melanoma,3.76 µM
same,TGI,LOX IMVI melanoma,14 µM
same,GI50,NCI-H226 lung,20.1 µM
same,TGI,NCI-H226 lung,60.3 µM
same,GI50,HCC-2998 colon,2.7 µM
same,TGI,HCC-2998 colon,7.4 µM
same,GI50,OVCAR-4 ovarian,2.99 µM
same,TGI,OVCAR-4 ovarian,9.19 µM
same,GI50,U251 CNS,1.94 µM
same,TGI,U251 CNS,7.06 µM
same,GI50,SK-MEL-2 melanoma,3.05 µM
same,TGI,SK-MEL-2 melanoma,8.77 µM
same,GI50,CCRF-CEM leukemia,2.23 µM
same,TGI,CCRF-CEM leukemia,6.37 µM
same,GI50,HS 578T breast,5.83 µM
same,TGI,HS 578T breast,29.6 µM
same,GI50,K-562 leukemia,3.02 µM
same,TGI,K-562 leukemia,11.2 µM
same,GI50,SR leukemia,2.15 µM
same,TGI,SR leukemia,6.07 µM
same,GI50,HCT-116 colon,2.95 µM
same,TGI,HCT-116 colon,11 µM
same,GI50,RXF 393 renal,4.53 µM
same,TGI,RXF 393 renal,17.1 µM
same,GI50,A498 renal,11 µM
same,TGI,A498 renal,23.9 µM
same,GI50,OVCAR-8 ovarian,5.7 µM
same,TGI,OVCAR-8 ovarian,24 µM
same,GI50,HL-60(TB) leukemia,1.99 µM
same,TGI,HL-60(TB) leukemia,4.07 µM
same,GI50,NCI-H460 lung,3.24 µM
same,TGI,NCI-H460 lung,11.8 µM
same,GI50,SK-MEL-5 melanoma,10.1 µM
same,TGI,SK-MEL-5 melanoma,22.3 µM
same,GI50,786-0 renal,2.25 µM
same,TGI,786-0 renal,6.11 µM
same,GI50,HCT-15 colon,2.89 µM
same,TGI,HCT-15 colon,12 µM
same,GI50,HOP-62 NSCLC,10 µM
same,TGI,HOP-62 NSCLC,24.4 µM
same,GI50,M14 melanoma,2.05 µM
same,TGI,M14 melanoma,4.04 µM
same,GI50,SNB-19 CNS,8.15 µM
same,TGI,SNB-19 CNS,24 µM
same,GI50,RPMI-8226 leukemia,2.48 µM
same,TGI,RPMI-8226 leukemia,7.06 µM
same,GI50,UO-31 renal,2 µM
same,TGI,UO-31 renal,5.24 µM
same,GI50,SK-MEL-28 melanoma,2.11 µM
same,TGI,SK-MEL-28 melanoma,5.35 µM
same,GI50,MCF7 breast,3.28 µM
same,TGI,MCF7 breast,15.5 µM
same,GI50,BT-549 breast,4.37 µM
same,TGI,BT-549 breast,14.9 µM
same,GI50,PC-3 prostate,6.26 µM
same,TGI,PC-3 prostate,22.5 µM
same,GI50,SK-OV-3 ovarian,8.74 µM
same,TGI,SK-OV-3 ovarian,22.7 µM
same,GI50,NCI-H522 lung,2.92 µM
same,TGI,NCI-H522 lung,9.84 µM
same,GI50,ACHN renal,3.37 µM
same,TGI,ACHN renal,12.4 µM
same,GI50,SN12C renal,4.68 µM
same,TGI,SN12C renal,16.5 µM
same,GI50,SW-620 colon,3.01 µM
same,TGI,SW-620 colon,11.6 µM
same,GI50,MDA-MB-231 breast,3.53 µM
same,TGI,MDA-MB-231 breast,13.5 µM
same,GI50,SNB-75 CNS,11.4 µM
same,TGI,SNB-75 CNS,26.4 µM
